Measurements published in PubChem BioAssay (NCI).
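Following 48 hours of exposure in 96-well plates, responses at five concentrations were used to interpolate endpoints linearly. Here, GI50 denotes the concentration required for 50% inhibition of growth. At the TGI there is no net growth.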

What was measured:
Test in all cases: growth of human tumour cells (NCI), 48 h
[1] = system: SK-MEL-5 melanoma
[2] = system: OVCAR-8 ovarian
[3] = system: OVCAR-5 ovarian
[4] = system: IGROV1 ovarian
[5] = system: HOP-62 NSCLC
[6] = system: UACC-257 melanoma
[7] = system: HCC-2998 colon
[8] = system: NCI-H522 lung
[9] = system: A549 NSCLC

CCOC(=O)C1=C(C)NC(c2ccccc2)=C(C(=O)OCc2ccccc2)C1C#Cc1ccccc1 (configuration not stated)
TGI [1]: > 100 µM | TGI [2]: > 100 µM | TGI [3]: > 100 µM | TGI [4]: > 100 µM | TGI [5]: > 100 µM | TGI [6]: > 100 µM

Cc1cccc(N=Nc2ccc(O)c(CN(C)C)c2)c1
TGI [7]: 30.3 µM | TGI [1]: 27.5 µM | TGI [8]: 24.1 µM | TGI [2]: 85.1 µM | TGI [3]: 98.4 µM | TGI [4]: 65.9 µM | TGI [9]: > 100 µM | TGI [5]: 28.9 µM | TGI [6]: 36 µM

O=C(N/N=C/c1ccc(O)cc1)NNCCO
TGI [7]: > 100 µM | TGI [1]: > 100 µM | TGI [8]: > 100 µM | TGI [2]: > 100 µM | TGI [3]: > 100 µM | TGI [4]: > 100 µM | TGI [9]: > 100 µM | TGI [5]: > 100 µM | TGI [6]: > 100 µM

Cc1ccnc2[nH]c(-c3ccc(Cl)cc3)cc(=O)c12
TGI [7]: > 100 µM | TGI [1]: > 100 µM | TGI [8]: > 100 µM | TGI [2]: > 100 µM | TGI [3]: > 100 µM | TGI [4]: > 100 µM | TGI [9]: > 100 µM | TGI [5]: > 93.5 µM | TGI [6]: > 100 µM

CCCN1CCN(c2ccc3nc(-c4ccc5nc(-c6ccc(OCC)cc6)[nH]c5c4)[nH]c3c2)CC1
GI50 [1]: 1.04 µM | TGI [1]: 2.24 µM | GI50 [8]: 1.16 µM | TGI [8]: 3.46 µM | GI50 [3]: 1.88 µM | TGI [3]: 3.36 µM

C=C1C(O)C2OC(=O)C(=C)C2C(OC(=O)/C(C)=C/C)CC2(C)OC2C2OC12 (configuration not stated)
TGI [7]: 21.6 µM | TGI [1]: > 100 µM | TGI [8]: 15.6 µM | TGI [2]: > 100 µM | TGI [3]: 83.7 µM | TGI [4]: > 100 µM | TGI [9]: > 100 µM | TGI [5]: > 100 µM | TGI [6]: > 100 µM

O=C(/C=C/c1cc2ccccc2[nH]c1=O)c1ccc(O)cc1
GI50 [7]: 4.13 µM | TGI [7]: 16 µM | GI50 [1]: 3.98 µM | TGI [1]: 13.3 µM | GI50 [8]: 1.7 µM | TGI [8]: 3.29 µM | GI50 [2]: 3.23 µM | TGI [2]: 21.1 µM | GI50 [3]: 3.2 µM | TGI [3]: 12.8 µM | GI50 [4]: 4.35 µM | TGI [4]: 45.1 µM | GI50 [9]: 2.73 µM | TGI [9]: 11.8 µM | GI50 [5]: 2.62 µM | TGI [5]: 8.18 µM | GI50 [6]: 3.87 µM | TGI [6]: 16 µM

c1ccc(C(OCCN2CC3CCC(C2)N3)c2ccccc2)cc1
TGI [7]: 32.3 µM | TGI [1]: 36.1 µM | TGI [8]: 93.1 µM | TGI [2]: > 100 µM | TGI [3]: > 100 µM | TGI [4]: > 100 µM | TGI [9]: > 100 µM | TGI [5]: > 100 µM | TGI [6]: 49 µM

C1=Nc2ccc(cc2)-c2ccc(cc2)N=Cc2ccccc2OCc2cccc(n2)COc2ccccc21
TGI [7]: > 100 µM | TGI [1]: > 100 µM | TGI [8]: > 96.5 µM | TGI [2]: > 100 µM | TGI [3]: > 100 µM | TGI [4]: > 100 µM | TGI [9]: > 100 µM | TGI [5]: 20.1 µM | TGI [6]: > 100 µM

CN1CN(c2ccccc2)C2(CCN(C(=O)OC(C)(C)C)CC2)C1=O
TGI [7]: > 100 µM | TGI [1]: > 100 µM | TGI [8]: > 100 µM | TGI [2]: > 100 µM | TGI [3]: > 100 µM | TGI [4]: > 100 µM | TGI [9]: > 100 µM | TGI [5]: > 100 µM | TGI [6]: > 100 µM

CC(=O)[C@H]1CC[C@@H]2[C@]1(C)CC=C1[C@]23C=C[C@]2(C[C@@H](O)CC[C@]12C)C(C(=O)O)C3C(=O)O (some centres not stated)
TGI [7]: > 100 µM | TGI [1]: > 100 µM | TGI [8]: > 100 µM | TGI [2]: > 100 µM | TGI [3]: > 100 µM | TGI [4]: > 100 µM | TGI [9]: > 100 µM | TGI [5]: > 100 µM | TGI [6]: > 100 µM
